Data reported in patent publication US20090099150A1, “Methotrexate Combinations For Treating Inflammatory Diseases” (priority 2005, published 2009).

How the values were obtained:
IL-1β = assay: Plasma IL-1β level (ELISA) at 35 days in collagen-induced arthritis; assay type: in vivo, Lewis rats; details: CIA rats, day 35
Protocol: (§1) Animals were randomly divided into sixth groups (n=10 for each group); (1) Sham group receiving intraperitoneally 26 mM sodium bicarbonate buffer at pH 8.1-8.3 which constituted the vehicle for M40403; (2) CIA group which constituted rats subjected to collagen induced arthritis as described below; (3) CIA+M40403 (2 mg/kg) group in which rats subjected to collagen-induced arthritis received M40403 at 2 mg/kg i.p. every 24 h, starting from day 25; (4) CIA+MET (0.015 mg/kg) group in which rats subjected to collagen-induced arthritis received orally, methotrexate at 0.015 mg/kg starting from day 25; (5) CIA+MET (0.15 mg/kg) group in which rats subjected to collagen-induced arthritis received orally, methotrexate at 0.15 mg/kg starting from day 25; (6)
(§2) CIA+MET+M40403 group in which rats subjected to collagen-induced arthritis received methotrexate (0.015 mg/kg; orally) and with M4043 (2 mg/kg, i.p.) starting from day 25.
(§3) Collagen-induced arthritis was produced as follows. Bovine type II collagen was dissolved in 0.01 M acetic acid at a concentration of 2 mg/ml by stirring overnight at 4° C. Dissolved collagen was frozen at −70° C. until use. Complete Freund's adjuvant was prepared by the addition of Mycobacterium tuberculosis H37Ra at a concentration of 2 mg/ml. Before injection, the collagen was emulsified with an equal volume of complete Freund's adjuvant. Collagen-induced arthritis was elicited as previously described (Salvemini et al Arthritis & rheumatism 44:2909-2921, 2001). On day 1, Lewis rats were injected intradermally at the base of the tail with 100 μl of the emulsion (containing 100 μg of bovine type II collagen). On day 21, a second injection of type II collagen in complete Freund's adjuvant was administered.
(§4) TNF-α and IL-1β levels were evaluated in plasma at 35 days after the induction of arthritis. The assay was carried out by using a calorimetric, commercial kit (Calbaiochem-Novabiochem Corporation, USA). The ELISA has a lower detection limit of 5 pg/ml.

[1] = system: collagen-induced arthritis; assay: Radiography of hind paws at day 35; assay type: in vivo, Lewis rats; details: CIA rats; for protection from bone resorption / joint pathology (FIG. 4: histological damage score and radiograph score): alone; for radiographic bone resorption / joint pathology of hind paws: methotrexate 0.15 mg/kg orally
[2] = system: type II collagen induced arthritis; details: Salvemini et al., Arthritis & Rheumatism 44:2909-2921, 2001; cited from earlier work
TNF-α = assay: Plasma TNF-α level (ELISA) at 35 days in collagen-induced arthritis; assay type: in vivo, Lewis rats; details: CIA rats, day 35
Protocol: as §1, §2, §3, §4

inflammation = details: Salvemini et al., Science 286:304-306, 1999; cited from earlier work
[3] = system: collagen-induced arthritis; assay: Hind paw volume by plethysmometry in collagen-induced arthritis; assay type: in vivo, Lewis rats; details: CIA rats, alone
[4] = Body weight gain in collagen-induced arthritis; assay type: in vivo, Lewis rats; details: CIA rats
Protocol: as §1, §2, §3

[5] = system: collagen-induced arthritis; assay: Clinical assessment of collagen-induced arthritis (percent arthritic rats, arthritis index); assay type: in vivo, Lewis rats; details: CIA rats
[6] = system: collagen-induced arthritis; assay: Histological assessment of joint injury at day 35; assay type: in vivo, Lewis rats; details: CIA rats, methotrexate 0.15 mg/kg orally
[7] = methotrexate 0.015 mg/kg orally, alone
[8] = methotrexate 0.015 mg/kg orally

For `[Cl-].[Cl-].[Mn+2].c1cc2nc(c1)CN[C@@H]1CCCC[C@H]1NCCN[C@@H]1CCCC[C@H]1NC2` [M40403], the “plasma level of IL-1β” value (IL-1β; M40403 2 mg/kg i.p., alone) is given as “No significant effect”, the “protection from bone resorption / joint pathology (FIG. 4: histological damage score and radiograph score)” value ([1]; M40403 2 mg/kg i.p.) is given as “No significant protection” and the “efficacy in an animal model of rheumatoid arthritis” value [2] is given as “effective”. For the same compound, the “plasma level of TNF-α” value (TNF-α; M40403 2 mg/kg i.p., alone) was “No significant effect”, the “efficacy in animal models of inflammation” value (inflammation) was “effective” and the “hind paw volume (paw edema)” value ([3]; M40403 2 mg/kg i.p.) was “attenuated the paw edema from day 30 to 35”. The body weight gain ([4]; M40403 2 mg/kg i.p., alone) was “significantly attenuated the loss in body weight”, the “development of collagen-induced arthritis (percent of arthritic rats)” value (“development … (percent of arthritic rats)” for short) ([5]; M40403 2 mg/kg i.p. every 24 h from day 25, alone) was “did not significantly altered the development of collagen-induced arthritis” and the arthritis index ([5]; M40403 2 mg/kg i.p., alone) was “Neither M40403 (2 mg/kg) nor methotrexate. (0.015 mg/kg) treatment alone attenuated the arthritis index”.

In the case of `CN(Cc1cnc2nc(N)nc(N)c2n1)c1ccc(C(=O)N[C@@H](CCC(=O)O)C(=O)O)cc1` [methotrexate, N-[4-[[(2,4-Diamino-6-pteridinyl)methyl]methylamino]benzoyl]-L-glutamic acid], the “plasma level of IL-1β” value (IL-1β; [7]) is reported as “No significant effect”, the “plasma level of IL-1β” value (IL-1β; methotrexate 0.15 mg/kg orally) is reported as “significantly lower” and the “protection from bone resorption / joint pathology (FIG. 4: histological damage score and radiograph score)” value [1, 8] is reported as “No significant protection”. For the same compound, the “radiographic bone resorption / joint pathology of hind paws” value [1] was “suppression of joint pathology”, the “radiographic bone resorption / joint pathology of hind paws” value ([1]; listed as Methogtrexate) was “markedly protect from bone resorption” and the “plasma level of TNF-α” value (TNF-α; [7]) was “No significant effect”. The “plasma level of TNF-α” value (TNF-α; methotrexate 0.15 mg/kg orally) was “significantly lower”, the “hind paw volume (paw edema)” value [3, 8] was “attenuated the paw edema from day 30 to 35” and the “hind paw volume (hind paw swelling)” value ([3]; methotrexate 0.15 mg/kg orally) was “continuously significant (P<0.001) suppression of hind paw swelling from day 26 to 35”. The Emax at 0.15 mg/kg ([3]; Rattus norvegicus, po, 672 h, methotrexate 0.15 mg/kg orally, from day 28 to 35, read-out: maximal response, suppression of hind paw swelling) was 70%, the “histology of the paw: bone erosion and degree of arthritis (damage score)” value [6] was “the bone erosion as well as the degree of arthritis were significantly reduced” and the body weight gain [4, 7] was “significantly attenuated the loss in body weight”. For the same compound, the body weight gain ([4]; methotrexate 0.15 mg/kg orally) was “positively affected the weight gain”, the “development … (percent of arthritic rats)” value ([5]; methotrexate 0.015 mg/kg orally from day 25, alone) was “did not significantly altered the development of collagen-induced arthritis” and the arthritis index [5, 7] was “Neither M40403 (2 mg/kg) nor methotrexate. (0.015 mg/kg) treatment alone attenuated the arthritis index”. For the same compound, the “development … (percent of arthritic rats)” value ([5]; methotrexate 0.15 mg/kg orally from day 25, alone) was “significant reduction in the percent of arthritic rats” and the arthritis index ([5]; methotrexate 0.15 mg/kg orally, between days 26 and 35 after immunization) was “significant suppression (P<0.01)”.
